Assay results taken from patent US9822086B2, “Process for the preparation of vortioxetine salts” (Egis Gyogyszergyar Zrt., priority 2014, dated 2017).
Each block holds one compound with its values, some of them ahead of it.

Test: Particle size distribution (Malvern Mastersizer 3000) of starting and vortex-mill ground salts
Assay type: physicochemical
Procedure: The vortioxetine salts according to the present invention can be ground preferably in a vortex mill, if necessary. Such active ingredients ground in a vortex mill are used in the pharmaceutical compositions according to examples 20-23.
The distribution of the particle size is measured on a Malvern Mastersizer 3000 apparatus under the following conditions: […]

[1] = dispersing pressure 2.0 bar, hemicitrate salt
[2] = dispersing pressure 2.0 bar, monooxalate salt

Characteristic particle size d10 (dispersing pressure 4.0 bar): 1.4 (±2.2%) μm
Characteristic particle size d50 (dispersing pressure 4.0 bar): 10.8 (±1.6%) μm
Characteristic particle size d90 (dispersing pressure 4.0 bar): 98.6 (±4.3%) μm
Compound: Br.Cc1ccc(Sc2ccccc2N2CCNCC2)c(C)c1 [Vortioxetine-hydrobromide, 1-[2-(2,4-dimethyl-phenylsulfanyl)-phenyl]-piperazine hydrobromide salt, reference compound]

Characteristic particle size d10 [2]: 2.0 (±0.3%) μm
Characteristic particle size d50 [2]: 6.8 (±0.5%) μm
Characteristic particle size d90 [2]: 21.14 (±0.7%) μm
Compound: Cc1ccc(Sc2ccccc2N2CCNCC2)c(C)c1.O=C(O)C(=O)O [Vortioxetine-monooxalate, 1-[2-(2,4-dimethyl-phenylsulfanyl)-phenyl]-piperazine monooxalate salt]

Characteristic particle size d10 [2]: 0.7 (±0.5%) μm
Characteristic particle size d50 [2]: 2.2 (±0.7%) μm
Characteristic particle size d90 [2]: 5.9 (±0.9%) μm
Compound: Cc1ccc(Sc2ccccc2N2CCNCC2)c(C)c1.O=C(O)C(=O)O [Vortioxetine-monooxalate ground, 1-[2-(2,4-dimethyl-phenylsulfanyl)-phenyl]-piperazine monooxalate salt]

Second part, the compound before the results:

Compound: 1-[2-(2,4-dimethyl-phenylsulfanyl)-phenyl]-piperazine hemicitrate salt [Vortioxetine-hemicitrate ground]
Characteristic particle size d10 [1]: 0.6 (±0.7%) μm
Characteristic particle size d50 [1]: 2.9 (±0.2%) μm
Characteristic particle size d90 [1]: 9.1 (±1.1%) μm

Compound: 1-[2-(2,4-dimethyl-phenylsulfanyl)-phenyl]-piperazine L-(+)-mandelic acid salt [Vortioxetine-L-mandalate]
Characteristic particle size d10 (dispersing pressure 2.0 bar): 8.6 (±0.2%) μm
Characteristic particle size d50 (dispersing pressure 2.0 bar): 41.5 (±0.2%) μm
Characteristic particle size d90 (dispersing pressure 2.0 bar): 114 (±0.9%) μm

Compound: Br.Cc1ccc(Sc2ccccc2N2CCNCC2)c(C)c1 [Vortioxetine-hydrobromide ground, 1-[2-(2,4-dimethyl-phenylsulfanyl)-phenyl]-piperazine hydrobromide salt, reference compound]
Characteristic particle size d10 (dispersing pressure 2.0 bar): 0.4 (±0.5%) μm
Characteristic particle size d50 (dispersing pressure 2.0 bar): 2.1 (±0.7%) μm
Characteristic particle size d90 (dispersing pressure 2.0 bar): 6.2 (±1.0%) μm

Compound: 1-[2-(2,4-dimethyl-phenylsulfanyl)-phenyl]-piperazine L-(+)-mandelic acid salt [Vortioxetine-L-mandalate ground]
Characteristic particle size d10 (dispersing pressure 2.0 bar): 0.5 (±0.6%) μm
Characteristic particle size d50 (dispersing pressure 2.0 bar): 2.1 (±0.2%) μm
Characteristic particle size d90 (dispersing pressure 2.0 bar): 5.0 (±0.9%) μm

Compound: 1-[2-(2,4-dimethyl-phenylsulfanyl)-phenyl]-piperazine hemicitrate salt [Vortioxetine-hemicitrate]
Characteristic particle size d10 [1]: 5.3 (±0.4%) μm
Characteristic particle size d50 [1]: 25.9 (±0.7%) μm
Characteristic particle size d90 [1]: 83.6 (±0.4%) μm
